Patent US9957274B2, “Indane inhibitors of EED and methods of their use” (AbbVie Inc., priority 2016, dated 2018)

Key:
[1] = system: H3K27me3 in OCILY19 cells; test: H3K27me3 AlphaLISA assay in OCILY19 cells; format: cell-based; details: Homo sapiens, OCI-LY19, 144 h, 6 days with compound, read-out: OCILY-19 IC50
Description: 5,000 cells were plated into each well of 96-well Corning CellBing cell culture plates and incubated overnight at 37° C. in a humidified CO2 incubator. […] The cell culture plates were then incubated for 6 more days. H3K27me3 AlphaLISA assay was performed on the cell culture samples by using AlphaLISAR® H3K27me3 Cellular Detection Kit (PerkinElmer) and 96-well white half-area plates (PerkinElmer).

EED = EED (Homo sapiens, UniProt O75530); test: EED TR-FRET Binding Assay (modified LanthaScreen competition assay)
In short: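 Competition binding in a modified LanthaScreen format, in 20 mM Tris-HCl pH 7.5, 200 mM NaCl, 0.01% Tween-20, 10 uM DTT and 0.05% BSA. Reactions ran 1 hour at 25° C before TR-FRET detection.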

Pfeiffer cells = test: CTG cell viability assay (CellTiter-Glo); format: cell-based; details: Homo sapiens, 240 h; Pfeiffer cells, 10 days with compound, CellTiter-Glo; read-out: Cell Proliferation IC50
Description: 1,000 cells were plated into each well of 96-well Corning CellBing cell culture plates and incubated overnight at 37° C. in a humidified CO2 incubator. […] The cell culture plates were then incubated for 10 more days. CTG cell viability assay was performed on the cell culture samples by using CellTiter-Glo® Luminescent Cell Viability Assay Kit (Promega).

Chain of EED (O75530 whole entry): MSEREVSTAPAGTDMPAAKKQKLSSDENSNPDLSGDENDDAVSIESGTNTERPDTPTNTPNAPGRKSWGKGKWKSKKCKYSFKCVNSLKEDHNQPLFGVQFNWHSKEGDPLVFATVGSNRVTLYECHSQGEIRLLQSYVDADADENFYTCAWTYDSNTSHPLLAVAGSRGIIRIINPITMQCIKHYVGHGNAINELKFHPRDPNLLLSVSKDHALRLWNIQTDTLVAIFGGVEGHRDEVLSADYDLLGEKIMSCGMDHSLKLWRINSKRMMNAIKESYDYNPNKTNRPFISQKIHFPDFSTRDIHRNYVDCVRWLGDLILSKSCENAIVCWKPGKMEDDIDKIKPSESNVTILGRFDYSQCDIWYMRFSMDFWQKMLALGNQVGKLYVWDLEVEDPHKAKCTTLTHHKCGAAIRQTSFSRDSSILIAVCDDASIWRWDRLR

Row | IC50 [1] | IC50 (EED) | Compound | IC50 (Pfeiffer cells)
1 | 583 nM | 0.638 nM | CN(C)[C@H]1CN(C2CCc3cccc(F)c32)C[C@@H]1C1CCN(c2cnc(C(N)=O)cn2)CC1 (mixture of isomers) [Example 163, rac-5-{4-[(3S,4R)-4-(dimethylamino)-1-(7-fluoro-2,3-dihydro-1H-inden-1-yl)pyrrolidin-3-yl]piperidin-1-yl}pyrazine-2-carboxamide] | 271 nM
2 | 3220 nM | 1.75 nM | CN(C)[C@@H]1CN(C2CCc3cccc(F)c32)C[C@H]1c1ccc(N2CCN(C(=O)CNS(C)(=O)=O)CC2)nc1 (mixture of isomers) [Example 155, rac-N-[2-(4-{5-[(3R,4S)-4-(dimethylamino)-1-(7-fluoro-2,3-dihydro-1H-inden-1-yl)pyrrolidin-3-yl]pyridin-2-yl}piperazin-1-yl)-2-oxoethyl]methanesulfonamide] | 395 nM
3 | 282 nM | 1.35 nM | CCS(=O)(=O)N1CCN(c2ccc([C@H]3CN(C4CCc5cccc(F)c54)C[C@@H]3N(C)C)cc2C)CC1 (mixture of isomers) [Example 62, rac-(3R,4S)-4-{4-[4-(ethanesulfonyl)piperazin-1-yl]-3-methylphenyl}-1-(7-fluoro-2,3-dihydro-1H-inden-1-yl)-N,N-dimethylpyrrolidin-3-amine] | 429 nM
4 | 556 nM | 1.39 nM | CN1CCN(c2ccc([C@H]3CN(C4CCc5cccc(F)c54)C[C@@H]3N(C)C)cc2)CC1=O (mixture of isomers) [Example 56, rac-4-{4-[(3S,4R)-4-(dimethylamino)-1-(7-fluoro-2,3-dihydro-1H-inden-1-yl)pyrrolidin-3-yl]phenyl}-1-methylpiperazin-2-one] | 145 nM
5 | 1360 nM | 2.51 nM | CN(C)C(=O)c1ccc([C@H]2CN(C3CCc4cccc(F)c43)C[C@@H]2N(C)C)cc1 (mixture of isomers) [Example 26, rac-4-[(3S,4R)-4-(dimethylamino)-1-(7-fluoro-2,3-dihydro-1H-inden-1-yl)pyrrolidin-3-yl]-N,N-dimethylbenzamide] | 3030 nM
6 | 334 nM | 0.835 nM | CN(C)[C@H]1CN(C2CCc3cccc(F)c32)C[C@@H]1c1ccc(N2CCN(C3CC3)CC2)cc1 (mixture of isomers) [Example 64, rac-(3R,4S)-4-[4-(4-cyclopropylpiperazin-1-yl)phenyl]-1-(7-fluoro-2,3-dihydro-1H-inden-1-yl)-N,N-dimethylpyrrolidin-3-amine] | 166 nM
7 | 241 nM | 1.03 nM | CC(=O)N1CCN(C(=O)c2cccc3c([C@H]4CN(C5CCc6cccc(F)c65)C[C@@H]4N(C)C)cn(C)c23)CC1 (mixture of isomers) [Example 128, rac-1-(4-{3-[(3S,4R)-4-(dimethylamino)-1-(7-fluoro-2,3-dihydro-1H-inden-1-yl)pyrrolidin-3-yl]-1-methyl-1H-indole-7-carbonyl}piperazin-1-yl)ethan-1-one] | 194 nM
8 | 2110 nM | 4.54 nM | CN(C)[C@H]1CN([C@H]2C[C@H](F)c3cccc(F)c32)C[C@@H]1c1ccc(S(C)(=O)=O)cc1 (mixture of isomers) [Example 32, rac-(3R,4S)-1-[(1S,3S)-3,7-difluoro-2,3-dihydro-1H-inden-1-yl]-4-[4-(methanesulfonyl)phenyl]-N,N-dimethylpyrrolidin-3-amine] | 2810 nM
9 | 4350 nM | 31 nM | CN(C)[C@H]1CN(C2CCc3cccc(Cl)c32)C[C@@H]1c1cn(C)c2ccccc12 (stereo partly drawn) [Example 89, (3R,4S)-1-(7-chloro-2,3-dihydro-1H-inden-1-yl)-N,N-dimethyl-4-(1-methyl-1H-indol-3-yl)pyrrolidin-3-amine] | 6370 nM
10 | 113 nM | 0.825 nM | CN(C)[C@@H]1CN(C2CCc3cccc(F)c32)C[C@H]1c1ccc(N2CCN(S(=O)(=O)c3cn(C)cn3)CC2)cc1 (mixture of isomers) [Example 73, rac-(3S,4R)-1-(7-fluoro-2,3-dihydro-1H-inden-1-yl)-N,N-dimethyl-4-{4-[4-(1-methyl-1H-imidazole-4-sulfonyl)piperazin-1-yl]phenyl}pyrrolidin-3-amine] | 99.5 nM
11 | 874 nM | 2.67 nM | Cc1cc([C@H]2CN(C3CCc4cccc(F)c43)C[C@@H]2N(C)C)ccc1C#N (mixture of isomers) [Example 37, rac-4-[(3S,4R)-4-(dimethylamino)-1-(7-fluoro-2,3-dihydro-1H-inden-1-yl)pyrrolidin-3-yl]-2-methylbenzonitrile] | 2660 nM
12 | 75 nM | 1 nM | CN(C)[C@@H]1CN(C2CCc3cccc(F)c32)C[C@H]1c1ccc(N2CCN(C(=O)CO)CC2)cc1 (mixture of isomers) [Example 52, rac-1-(4-{4-[(3R,4S)-4-(dimethylamino)-1-(7-fluoro-2,3-dihydro-1H-inden-1-yl)pyrrolidin-3-yl]phenyl}piperazin-1-yl)-2-hydroxyethan-1-one] | 89.4 nM
13 | 171 nM | 23.1 nM | CN(C)[C@H]1CN([C@H]2CCc3cccc(F)c32)C[C@@H]1c1ccc(S(C)(=O)=O)cc1 [Example 11, (3R,4S)-1-[(1S)-7-fluoro-2,3-dihydro-1H-inden-1-yl]-4-[4-(methanesulfonyl)phenyl]-N,N-dimethylpyrrolidin-3-amine] | 301 nM
14 |  | 3.84 nM | CN(C)C(=O)CN1CCN(c2ccc([C@@H]3CN(C4CCc5cccc(F)c54)C[C@H]3N(C)C)cn2)CC1 (mixture of isomers) [Example 147, rac-2-(4-{5-[(3R,4S)-4-(dimethylamino)-1-(7-fluoro-2,3-dihydro-1H-inden-1-yl)pyrrolidin-3-yl]pyridin-2-yl}piperazin-1-yl)-N,N-dimethylacetamide] | 535 nM
15 |  | 9.44 nM | CN(C)[C@H]1CN(C2CCc3cccc(F)c32)C[C@@H]1c1cn(C)c2c(C(=O)O)cccc12 (mixture of isomers) [Example 80, rac-3-[(3S,4R)-4-(dimethylamino)-1-(7-fluoro-2,3-dihydro-1H-inden-1-yl)pyrrolidin-3-yl]-1-methyl-1H-indole-7-carboxylic acid] | 1520 nM
16 |  | 3.35 nM | CN(C)[C@H]1CN(C2CCc3cccc(F)c32)C[C@@H]1c1cn(C)c2c(C(=O)N3CC[C@H](O)C3)cccc12 (mixture of isomers) [Example 118, rac-{3-[(3S,4R)-4-(dimethylamino)-1-(7-fluoro-2,3-dihydro-1H-inden-1-yl)pyrrolidin-3-yl]-1-methyl-1H-indol-7-yl}[(3S)-3-hydroxypyrrolidin-1-yl]methanone] | 298 nM
17 | 368 nM | 1.74 nM | CN(C)C(=O)c1cccc2c([C@H]3CN(C4CCc5cccc(F)c54)C[C@@H]3N(C)C)cn(C)c12 (mixture of isomers) [Example 101, rac-3-[(3S,4R)-4-(dimethylamino)-1-(7-fluoro-2,3-dihydro-1H-inden-1-yl)pyrrolidin-3-yl]-N,N,1-trimethyl-1H-indole-7-carboxamide] | 
18 | 1340 nM |  | CN(C)[C@H]1CN(C2CCc3cccc(F)c32)C[C@@H]1c1cn(C)c2ccccc12 (stereo partly drawn) [Example 76, (3R,4S)-1-(7-fluoro-2,3-dihydro-1H-inden-1-yl)-N,N-dimethyl-4-(1-methyl-1H-indol-3-yl)pyrrolidin-3-amine] | 1900 nM
